In EP2999467B1, “USE OF A COMBINATION OF TWO COMPOUNDS FOR THE TREATMENT AND/OR PREVENTION OF BONE DISORDERS” (Institut National de la Recherche Agronomique (INRA), priority 2013, dated 2014):
Like-named read-outs stand apart in the source and are kept apart here.

Experiments:
[1] = test system: ostéocalcine; assay: Quantitative RT-PCR, osteoblast differentiation marker: osteocalcin; type: cell-based, rats Wistar; conditions: Rattus norvegicus; for activation at 5 µM: AA+βGP+Fisétine 5µM
Excerpt: (§1) Les préostéoblastes primaires ont été isolés à partir de la calotte crânienne de rats Wistar nouveaux-nés par digestion enzymatique comme précédemment décrit [Declercq, H., Van den Vreken, N., De Maeyer, E., Verbeeck, R., Schacht, E., De Ridder, L., and Cornelissen, M. (2004). Isolation, proliferation and differentiation of osteoblastic cells to study cell/biomaterial interactions: comparison of different isolation techniques and source. Biomaterials 25, 757-68.]. Les précurseurs d'ostéoclastes RAW264.7 ont été obtenus auprès de l'ATCC (Manassas, VA, USA). Les préostéoblastes et les RAW264.7 ont été cultivés dans du milieu α-MEM (Invitrogen, Carlsbad, CA, USA) supplémenté avec 10% de SVF décomplémenté et de 100 unités/ml de pénicilline-streptomycine.
L'extraction des ARN totaux (cellules et fémurs) a été effectuée en utilisant le réactif TRIzol, la transcription inverse (RT) a été réalisée à l'aide du kit de synthèse d'ADNc Dynamo (Thermo Scientific, Waltham, MA, USA) et l'analyse PCR en temps réel a été réalisée avec le Mastercycler ep Realplex2 (Eppendorf, Hambourg, Allemagne). Toutes les valeurs ont été normalisées par la GAPDH. Les séquences des oligos utilisés sont : ALP F 5'-GGCCAGCTACACCACAACA-3' / ALP R 5'-[…] -3' / OCN F 5'-AGACTCCGGCGCTACCTT -3' / OCN R 5'-[…]-3'/ COL1 F 5'-[…]-3' / COL1 R 5'-[…]-3' / GAPDH F 5'-[…]-3' / GAPDH R 5'-[…]-3'

[2] = test system: perte osseuse induite par ovariectomie; assay: Ovariectomy-induced bone loss: trabecular bone mineral density of femur (CT); type: in vivo, souris C57BL/6J; conditions: OVX mice, Fisétine 25mg/kg daily by gavage; OVX without fisetin -15%
Description: Tout au long de l'étude, les animaux ont été logés dans un environnement contrôlé (12:12 h cycle lumière-obscurité, 20-22 ° C, 50-60% d'humidité relative, 1 souris par cage en plastique avec un accès libre à l'eau. Les souris C57BL/6J ont été livrées 2 semaines avant l'étude pour l'acclimatation à notre environnement sous régime standard semi-purifié. Pour toutes les expériences, les souris de 8 semaines (n=12/groupe) ont été gavées avec le véhicule (1% d'éthanol, 0,2% hydroxypropylcellulose dans de l'eau distillée) ou avec la fisétine (5 à 50 mg/kg dans le véhicule) pendant une semaine. Ensuite, pour l'expérience OVX, les souris ont été pseudo-opérées ou ovariectomisées bilatéralement et ont reçu quotidiennement par gavage le véhicule ou la fisétine pendant 4 semaines. A la fin de l'expérimentation, le sérum, les cornes utérines, les tibias et les fémurs ont été recueillis pour analyse. Pour l'expérience de perte osseuse induite par LPS, le véhicule (PBS) ou le LPS (sérotype 026: B6, 25mg/kg) ont été injectés par voie sous-cutanée au niveau de la calotte crânienne, une fois par semaine pendant 3 semaines sous anesthésie. Durant ces 3 semaines, les souris ont reçu soit le véhicule (1% d'éthanol, 0,2% hydroxypropylcellulose dans de l'eau distillée) soit la fisétine quotidiennement par gavage. […]

[3] = test system: préostéoblastes primaires; assay: Mineralisation test (alizarin red staining of mineralised nodules); type: cell-based, rats Wistar; conditions: Rattus norvegicus, 408 h, 17 days of culture, read-out: minéralisation (nodules minéralisés) par rapport à la condition « AA+βGP seuls »
Excerpt: as §1
Les préostéoblastes primaires ont été ensemencés à 1,5 * 10^5 cellules par puit dans des plaques 12 puits traitées au collagène. Trente-six heures plus tard, les cellules ont été prétraitées avec du DMSO comme témoin ou de la fisétine (1 à 5 µM) pendant 12 heures, puis induites à se différentier avec 25 µg/ml d'acide ascorbique et 5 mM de bêta-glycérophosphate en présence de DMSO ou de fisétine (1 à 5 µM). Après 17 jours de culture avec un changement des milieux tous les 2 jours, les cellules ont été fixées avec de l'éthanol à 70% et les dépôts de calcium ont été colorés avec une solution à 40 mM d'alizarine rouge (pH 4,2). La zone et l'intensité des nodules ont été quantifiées en utilisant le logiciel ImageJ (http://rsb.info.nih.gov/ij/).

O=c1c(O)c(-c2ccc(O)c(O)c2)oc2cc(O)ccc12 [Fisétine, 3,3',4',7-tétrahydroxyflavone]
activation at 1 µM ([1]; 168 h, AA+βGP+Fisétine 1 µM, J7, read-out: expression de l'ostéocalcine par rapport à la condition « AA+βGP seuls »): 63% | activation at 5 µM ([1]; 168 h, J7, read-out: expression de l'ostéocalcine par rapport à la condition « AA+βGP seuls »): 177% | activation at 1 µM ([1]; 336 h, AA+βGP+Fisétine 1µM, J14, read-out: expression de l'ostéocalcine par rapport à la condition « AA+βGP seuls »): 63% | activation at 5 µM ([1]; 336 h, J14, read-out: expression de l'ostéocalcine par rapport à la condition « AA+βGP seuls »): 131% | densité minérale osseuse (DMO trabéculaire) par rapport à la condition témoin « SH » [2]: -4% | activation at 1 µM ([3]; AA+βGP+Fisétine 1µM): 62% | activation at 5 µM ([3]; AA+βGP+Fisétine 5µM): 169% | activation at 2.5 µM ([3]; AA+βGP+Fisétine 2,5µM): 105%
